Measurements from patent publication US9274116B2, “Drug selection for breast cancer therapy using antibody-based arrays” (NESTEC S.A., priority 2008, dated 2016).

Columns and labels:
Progesterone Receptor = test: Tumor cell pathway profile: Progesterone Receptor; assay type: in vivo, human; settings: tumor cells on re-biopsy
Description: (§1) The incubation was for 2 hours at room temperature. • 5) Alternatively, the detection step utilized a biotin-conjugate of the monoclonal antibody recognizing phosphorylated EGFR. In these instances, after six washes an additional sequential step of incubation with streptavidin-HRP for 1 hour was included. • 6) Alternatively, the detection step utilized an oligonucleotide-mediated glucose oxidase (GO) conjugate of the anti-EGFR antibody.
(§2) The exemplary patient profiles shown below in Tables 4-22 illustrate how an analysis of the pathways active in circulating tumor cells (CTCs) from blood or cancer cells obtained from a needle biopsy can be used to help physicians decide upon an effective course of treatment for a breast tumor, e.g., neoadjuvant treatment prior to surgery to reduce the size of the breast tumor or treatment in patients with locally recurrent or metastatic breast cancer. In brief, the activation levels of different components of the ErbB and nuclear hormone receptor pathways in CTCs or biopsy-derived cancer cells can be determined in the presence or absence of different combinations of test therapeutic agents.

IGF-1R = test: Tumor cell pathway profile: IGF-1R; assay type: in vivo, human; settings: tumor cells on re-biopsy
Description: as §1
(§3) In brief, the activation levels of different components of the ErbB and nuclear hormone receptor pathways in CTCs or biopsy-derived cancer cells can be determined in the presence or absence of different combinations of test therapeutic agents.

ErbB2 = target: T1, ErbB2 (Homo sapiens, UniProt P04626); test: Tumor cell pathway profile: ErbB2; assay type: in vivo; settings: tumor cells on re-biopsy
T1 construct: pathways active in circulating tumor cells (CTCs) from blood or cancer cells obtained from a needle biopsy; endogenous in cells; host or cells: patient's circulating tumour cells or biopsy-derived breast cancer cells
T1 sequence (P04626 23-1255): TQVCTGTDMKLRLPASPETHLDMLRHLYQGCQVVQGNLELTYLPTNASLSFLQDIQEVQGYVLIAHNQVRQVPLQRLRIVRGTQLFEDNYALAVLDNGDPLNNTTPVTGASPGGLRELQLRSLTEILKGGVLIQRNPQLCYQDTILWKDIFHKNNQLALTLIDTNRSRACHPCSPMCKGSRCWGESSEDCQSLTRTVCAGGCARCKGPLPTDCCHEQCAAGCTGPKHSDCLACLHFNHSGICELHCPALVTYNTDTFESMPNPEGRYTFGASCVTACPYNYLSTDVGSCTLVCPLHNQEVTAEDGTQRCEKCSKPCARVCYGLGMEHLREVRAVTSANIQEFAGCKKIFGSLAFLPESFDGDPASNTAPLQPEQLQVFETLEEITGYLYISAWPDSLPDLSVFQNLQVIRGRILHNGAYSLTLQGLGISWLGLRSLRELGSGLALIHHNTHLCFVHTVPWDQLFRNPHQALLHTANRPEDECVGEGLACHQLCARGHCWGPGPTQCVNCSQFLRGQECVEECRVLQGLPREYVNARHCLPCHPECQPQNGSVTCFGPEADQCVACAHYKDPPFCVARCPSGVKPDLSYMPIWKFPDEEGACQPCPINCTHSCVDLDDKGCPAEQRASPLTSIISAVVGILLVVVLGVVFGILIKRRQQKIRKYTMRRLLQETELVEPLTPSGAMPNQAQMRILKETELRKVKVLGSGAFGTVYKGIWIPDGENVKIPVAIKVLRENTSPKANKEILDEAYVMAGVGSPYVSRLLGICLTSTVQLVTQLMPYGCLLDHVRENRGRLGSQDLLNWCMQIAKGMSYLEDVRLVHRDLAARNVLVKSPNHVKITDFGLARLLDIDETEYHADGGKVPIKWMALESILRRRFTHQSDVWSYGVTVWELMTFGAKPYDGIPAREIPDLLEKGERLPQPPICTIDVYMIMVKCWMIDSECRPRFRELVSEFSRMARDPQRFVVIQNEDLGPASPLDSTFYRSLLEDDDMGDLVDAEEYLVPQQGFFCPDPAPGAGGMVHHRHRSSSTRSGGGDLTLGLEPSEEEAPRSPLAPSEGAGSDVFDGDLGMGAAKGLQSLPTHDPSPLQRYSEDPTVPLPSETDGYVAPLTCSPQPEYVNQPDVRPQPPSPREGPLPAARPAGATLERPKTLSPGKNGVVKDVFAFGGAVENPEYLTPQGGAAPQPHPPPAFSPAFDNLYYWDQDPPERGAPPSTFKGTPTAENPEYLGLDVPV
Description: as §1, §3

ErbB3 = test: Tumor cell pathway profile: ErbB3; assay type: in vivo, human; settings: tumor cells on re-biopsy
Description: as §1, §2

ErbB4 = target: T2, ErbB4 (Homo sapiens, UniProt Q15303); test: Tumor cell pathway profile: ErbB4; assay type: in vivo; settings: tumor cells on re-biopsy
T2 construct: pathways active in circulating tumor cells (CTCs) from blood or cancer cells obtained from a needle biopsy; endogenous in cells; host or cells: patient's circulating tumour cells or biopsy-derived breast cancer cells
T2 sequence (Q15303 26-1308): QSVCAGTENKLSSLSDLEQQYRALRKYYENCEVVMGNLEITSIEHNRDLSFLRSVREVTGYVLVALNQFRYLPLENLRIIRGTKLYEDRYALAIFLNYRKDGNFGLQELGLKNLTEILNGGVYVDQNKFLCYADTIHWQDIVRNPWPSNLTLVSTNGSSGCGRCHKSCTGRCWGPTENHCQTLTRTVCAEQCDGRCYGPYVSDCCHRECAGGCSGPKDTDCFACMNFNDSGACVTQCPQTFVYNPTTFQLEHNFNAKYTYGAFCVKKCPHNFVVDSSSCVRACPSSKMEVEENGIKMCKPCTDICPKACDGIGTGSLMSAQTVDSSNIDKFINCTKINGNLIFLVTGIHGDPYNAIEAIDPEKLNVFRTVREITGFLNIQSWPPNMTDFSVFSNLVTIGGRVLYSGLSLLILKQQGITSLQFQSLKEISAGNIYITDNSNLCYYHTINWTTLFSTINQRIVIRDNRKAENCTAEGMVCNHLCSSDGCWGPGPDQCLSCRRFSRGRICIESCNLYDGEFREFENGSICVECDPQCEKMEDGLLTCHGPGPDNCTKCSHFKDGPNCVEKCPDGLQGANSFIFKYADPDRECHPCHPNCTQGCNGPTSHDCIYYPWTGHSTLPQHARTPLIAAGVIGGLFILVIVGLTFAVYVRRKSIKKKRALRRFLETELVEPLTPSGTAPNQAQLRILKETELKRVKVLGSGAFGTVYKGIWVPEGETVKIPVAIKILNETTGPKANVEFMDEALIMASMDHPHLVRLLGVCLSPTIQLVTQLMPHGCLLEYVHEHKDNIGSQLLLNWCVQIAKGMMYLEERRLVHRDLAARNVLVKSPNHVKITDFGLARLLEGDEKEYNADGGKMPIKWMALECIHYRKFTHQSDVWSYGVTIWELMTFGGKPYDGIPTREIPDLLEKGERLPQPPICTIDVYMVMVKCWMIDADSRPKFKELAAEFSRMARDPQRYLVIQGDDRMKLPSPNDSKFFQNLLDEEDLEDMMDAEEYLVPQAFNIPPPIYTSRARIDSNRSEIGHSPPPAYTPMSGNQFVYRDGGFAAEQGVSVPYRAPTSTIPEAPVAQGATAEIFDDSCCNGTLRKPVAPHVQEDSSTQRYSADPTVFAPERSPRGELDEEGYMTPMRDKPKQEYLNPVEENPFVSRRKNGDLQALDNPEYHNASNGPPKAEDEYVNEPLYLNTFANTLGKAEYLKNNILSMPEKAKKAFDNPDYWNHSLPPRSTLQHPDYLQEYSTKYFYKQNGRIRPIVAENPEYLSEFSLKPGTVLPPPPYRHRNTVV
Description: as §1, §3

PTEN = test: Tumor cell pathway profile: PTEN; assay type: in vivo, human; settings: Patient 4001 (ER+/PR+/ErbB2−), tumor cells on re-biopsy
Description: as §1, §2

Shc = test: Tumor cell pathway profile: Shc; assay type: in vivo, human; settings: tumor cells on re-biopsy
Description: as §1, §2

PI3K = test: Tumor cell pathway profile: PI3K; assay type: in vivo, human; settings: tumor cells on re-biopsy
Description: as §1, §3

Erk = test: Tumor cell pathway profile: Erk; assay type: in vivo, human; settings: tumor cells on re-biopsy
Description: as §1, §3

Rsk = test: Tumor cell pathway profile: Rsk; assay type: in vivo, human; settings: tumor cells on re-biopsy
Description: as §1, §3

Akt = test: Tumor cell pathway profile: Akt; assay type: in vivo, human; settings: tumor cells on re-biopsy
Description: as §1, §3

P70S6K = test: Tumor cell pathway profile: P70S6K; assay type: in vivo, human; settings: tumor cells on re-biopsy
Description: as §1, §3

Ki67 = test: Tumor cell pathway profile: Ki67; assay type: in vivo, human; settings: tumor cells on re-biopsy
Description: as §1, §2

TOPO II = test: Tumor cell pathway profile: TOPO II; assay type: in vivo, human; settings: Patient 4001 (ER+/PR+/ErbB2−), tumor cells on re-biopsy
Description: as §1, §2

breast tumor = test: Response of breast cancer patient to therapy selected from pathway profile; assay type: in vivo, human
Text: as §2
In brief, the activation levels of different components of signal transduction pathways such as the ErbB receptor pathways in CTCs or biopsy-derived cancer cells can be determined in the presence or absence of different combinations of test therapeutic agents.

pHER-1 = target: T3, pHER-1 (Homo sapiens, UniProt P00533); test: Multiplexed proximity assay, per-cell RTK activation in cell lines: pHER-1; assay type: cell-based; settings: stimulation with the ligand, calculated from number of cells required to detect EC20 (12000 RFU)
T3 construct: host or cells: SKBR3, MDA-MB-468, T47D, BT474
Description: Slides were incubated with blocking buffer for 1 hr and then washed 3× with TBST buffer. Cell lysates were then added onto each pad for overnight incubation at room temperature (RT). Upon the completion of the primary binding, lysates were aspirated and then each pad was washed several times with TBST. Then, secondary detector antibodies (conjugated with GO or HRP) were added to each pad for 2 hr at RT. […]
Quantitation was performed using Perkin Elmer ScanArray Express software and the data obtained was corrected for local and global background intensities. […] A nonlinear regression model was used for the quantitation of cell-equivalent amount for corresponding relative fluorescence unit (RFU) values. […]

pHER-2 = test: Multiplexed proximity assay, per-cell RTK activation in cell lines: pHER-2; assay type: cell-based; settings: for Per Cell-RTK Activation (RFU/cell) pHER2: stimulation with the ligand, calculated from number of cells required to detect EC20 (12000 RFU)
Description: SKBR3, MDA-MB-468, T47D, and BT474 cell lines were obtained from ATCC. Cells were grown in the following growth media in 100 mm tissue culture plates at 37° C. in 5% CO2: SKBR3—MacCoy's 5A medium with 10% FBS; MDA-MB-468—DMEM, 10% FBS; BT474—DMEM, 10% FBS; T47D—RPMI 1640, 10% FBS, 0.2 U/ml bovine insulin. Cells were harvested at 70-80% confluency with gentle detachment process (trypsin treatment+subsequent inactivation) and were subsequently counted and washed with 1×PBS. […] Subsequently, stimulated cells were washed with 1×PBS and then were lysed and kept on ice for 30 min.
Capture antibodies were diluted in 1×PBS with detergent. A contact microarray printer (Genetix) was utilized to print on 16 pad nitrocellulose FAST slides (Whatman). The spot diameter was approximately 175 μm and printed slides were kept in a desiccated chamber at 4° C.
Slides were incubated with blocking buffer for 1 hr and then washed 3× with TBST buffer. Cell lysates were then added onto each pad for overnight incubation at room temperature (RT). Upon the completion of the primary binding, lysates were aspirated and then each pad was washed several times with TBST. Then, secondary detector antibodies (conjugated with GO or HRP) were added to each pad for 2 hr at RT. Unbound secondary detector antibodies were removed by washing with TBST, and signal amplification buffer containing glucose and biotinylated tyramide was added to each pad for 15 min. After removing excess biotinylated tyramide, Alexa-647 conjugated strepavidin was added for the signal detection.
Quantitation was performed using Perkin Elmer ScanArray Express software and the data obtained was corrected for local and global background intensities. A GenePixArray List (GAL) file was used to provide descriptive name and identifier information and was incorporated into the image analysis output file. Signals from triplicate spots were averaged and data were normalized to correct for pad to pad variability. A nonlinear regression model was used for the quantitation of cell-equivalent amount for corresponding relative fluorescence unit (RFU) values. The data were fit to a five parameter Hill equation to generate the standard curves. Each curve was validated against known controls. A known number of cells was predicted for the appropriate dilution, corresponding to the curve with the highest slope at the intensity of the unknown sample.
Analytical specificity of the collaborative immunoassay format described herein was >99.99% based on a comparative study performed on multiple cell lines with various RTK levels. […] The RTK activation profile for T47D cells, which express some level of ErbB2 and ErbB3 but an extremely low amount of ErbB1, is shown in FIG. 22. The number of cells required to detect EC20 (12000 RFU) pHER-1 or pHER-2 were used to calculate per-cell RTK activation (RFU/cell) as shown in Table 43. When MB468 cells expressing an extremely low amount of HER-2 were used, having ˜1000 cells per reaction pad was not sufficient to achieve EC20, and this type of low or non-detectable signal in other cell lines was indicated as “ND” in Table 43. […] This collaborative immunoassay format ensures ultra-specificity while maintaining its sub-single cell level (10^4 to 10^5) molecular level assay sensitivity.

p95ErbB2 = settings: T47D cells, FIG. 17
Description: The slide is incubated for two hours at room temperature. • 4) After six washes with TBS-Tween, 80 μl of detection antibodies for the proximity assay diluted in TBS-Tween/2% BSA/1% FBS is added to the slides. The detection antibodies used are: (1) an anti-ErbB2 antibody specific for the intracellular domain of ErbB2 that is directly conjugated to glucose oxidase (GO); and (2) a monoclonal antibody recognizing phosphorylated ErbB2 that is directly conjugated to horseradish peroxidase (HRP). The incubation is for 2 hours at room temperature. • 5) For signal amplification, 80 μl of biotin-tyramide at 5 μg/ml is added and reacted for 15 minutes along with 50 mM glucose. The slide is washed six times with TBS-Tween, twice with 20% DMSO/TBS-Tween, and once with TBS. […] The slide is then washed twice, dried for 5 minutes, and scanned on a microarray scanner (Perkin-Elmer, Inc.). • 6) As a non-limiting example, slide 1 can report on total ErbB2 activation while slide 2 can report on truncated ErbB2 activation.
The slide is incubated for two hours at room temperature. • 4) After six washes with TBS-Tween, 80 μl of detection antibodies for the assay diluted in TBS-Tween/2% BSA/1% FBS is added to the slides. The detection antibody used is an anti-ErbB2 antibody specific for the intracellular domain of ErbB2 that is directly conjugated to HRP. […]

ER = target: T4, ER (Homo sapiens, UniProt P03372); test: Tumor cell (CTC/biopsy) pathway profile on antibody array: ER expression; assay type: in vivo; settings: Patient 4008 (High AIB1; ER+/PR+/ErbB2−), tumor cells on re-biopsy
T4 construct: pathways active in circulating tumor cells (CTCs) from blood or cancer cells obtained from a needle biopsy; endogenous in cells; host or cells: patient's circulating tumour cells or biopsy-derived breast cancer cells
T4 sequence (P03372 whole entry): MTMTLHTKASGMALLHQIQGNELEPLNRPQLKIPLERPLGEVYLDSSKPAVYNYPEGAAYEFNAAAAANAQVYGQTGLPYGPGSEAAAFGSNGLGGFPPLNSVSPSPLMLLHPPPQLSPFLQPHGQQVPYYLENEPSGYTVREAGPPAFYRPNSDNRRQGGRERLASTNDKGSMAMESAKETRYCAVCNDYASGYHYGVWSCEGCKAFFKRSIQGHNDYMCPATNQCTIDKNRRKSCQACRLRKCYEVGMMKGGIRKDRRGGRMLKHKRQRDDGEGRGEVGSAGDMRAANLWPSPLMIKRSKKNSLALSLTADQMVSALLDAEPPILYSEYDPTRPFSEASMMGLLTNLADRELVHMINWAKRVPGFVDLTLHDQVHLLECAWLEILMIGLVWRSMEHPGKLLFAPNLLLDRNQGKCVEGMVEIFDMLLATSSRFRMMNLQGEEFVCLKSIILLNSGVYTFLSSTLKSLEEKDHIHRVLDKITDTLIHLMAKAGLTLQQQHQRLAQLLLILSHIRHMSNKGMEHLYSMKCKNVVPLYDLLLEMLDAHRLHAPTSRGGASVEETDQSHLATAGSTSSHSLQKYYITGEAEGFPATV
Description: as §1, §3

ER (Ser 118) = target: T5, ER (Ser 118) (Homo sapiens, UniProt P03372); test: Tumor cell pathway profile: ER (Ser 118) phosphorylation; assay type: in vivo; settings: Patient 4008 (High AIB1; ER+/PR+/ErbB2−), tumor cells on re-biopsy
T5 construct: pathways active in circulating tumor cells (CTCs) from blood or cancer cells obtained from a needle biopsy; endogenous in cells; host or cells: patient's circulating tumour cells or biopsy-derived breast cancer cells
T5 sequence (P03372 whole entry): as above
Description: as §1, §3

ER (Ser 167) = target: T6, ER (Ser 167) (Homo sapiens, UniProt P03372); test: Tumor cell pathway profile: ER (Ser 167) phosphorylation; assay type: in vivo; settings: Patient 4008 (High AIB1; ER+/PR+/ErbB2−), tumor cells on re-biopsy
T6 construct: pathways active in circulating tumor cells (CTCs) from blood or cancer cells obtained from a needle biopsy; endogenous in cells; host or cells: patient's circulating tumour cells or biopsy-derived breast cancer cells
T6 sequence (P03372 whole entry): as above
Description: as §1, §3

ER:AIB1 Complex = target: T7, ER:AIB1 Complex (Homo sapiens, UniProt P03372); test: Tumor cell pathway profile: ER:AIB1 complex; assay type: in vivo; settings: Patient 4008 (High AIB1; ER+/PR+/ErbB2−), tumor cells on re-biopsy
T7 construct: pathways active in circulating tumor cells (CTCs) from blood or cancer cells obtained from a needle biopsy; endogenous in cells; host or cells: patient's circulating tumour cells or biopsy-derived breast cancer cells
T7 sequence (P03372 whole entry, one chain of several): as the sequence (P03372 whole entry) above
Description: as §1, §3

ER:N-CoR Complex = target: T8, ER:N-CoR Complex (Homo sapiens, UniProt P03372); test: Tumor cell pathway profile: ER:N-CoR complex; assay type: in vivo; settings: Patient 4008 (High AIB1; ER+/PR+/ErbB2−), tumor cells on re-biopsy
T8 construct: pathways active in circulating tumor cells (CTCs) from blood or cancer cells obtained from a needle biopsy; endogenous in cells; host or cells: patient's circulating tumour cells or biopsy-derived breast cancer cells
Description: as §1, §3

ErbB1 = target: T9, ErbB1 (Homo sapiens, UniProt P00533); test: Tumor cell pathway profile: ErbB1; assay type: in vivo; settings: Patient 4008 (High AIB1; ER+/PR+/ErbB2−), tumor cells on re-biopsy
T9 construct: pathways active in circulating tumor cells (CTCs) from blood or cancer cells obtained from a needle biopsy; endogenous in cells; host or cells: patient's circulating tumour cells or biopsy-derived breast cancer cells
Description: as §1, §3

[1] = Patient 4008 (High AIB1; ER+/PR+/ErbB2−)

## CC/C(=C(\c1ccccc1)c1ccc(OCCN(C)C)cc1)c1ccccc1 [Tamoxifen, tamoxifen]
Progesterone Receptor; Patient 4001 (ER+/PR+/ErbB2−)
  Progesterone Receptor: Treatment with Tamoxifen: Medium
IGF-1R; Patient 4001 (ER+/PR+/ErbB2−)
  IGF-1R: Treatment with Tamoxifen: Weak
ErbB2; Patient 4001 (ER+/PR+/ErbB2−)
  ErbB2: Treatment with Tamoxifen: Weak
ErbB3; Patient 4001 (ER+/PR+/ErbB2−)
  ErbB3: Treatment with Tamoxifen: Weak
ErbB4; Patient 4001 (ER+/PR+/ErbB2−)
  ErbB4: Treatment with Tamoxifen: Weak
PTEN
  PTEN: Treatment with Tamoxifen: Medium
Shc; Patient 4001 (ER+/PR+/ErbB2−)
  Shc: Treatment with Tamoxifen: Weak
PI3K; Patient 4001 (ER+/PR+/ErbB2−)
  PI3K: Treatment with Tamoxifen: Weak
Erk; Patient 4001 (ER+/PR+/ErbB2−)
  Erk: Treatment with Tamoxifen: Weak
Rsk; Patient 4001 (ER+/PR+/ErbB2−)
  Rsk: Treatment with Tamoxifen: Weak
Akt; Patient 4001 (ER+/PR+/ErbB2−)
  Akt: Treatment with Tamoxifen: Weak
P70S6K; Patient 4001 (ER+/PR+/ErbB2−)
  P70S6K: Treatment with Tamoxifen: Weak
Ki67; Patient 4001 (ER+/PR+/ErbB2−)
  Ki67: Treatment with Tamoxifen: Weak
TOPO II
  TOPO II: Treatment with Tamoxifen: Medium
Breast tumor; Patient 4001 (ER+/PR+/ErbB2−), premenopausal, node negative
  Patient response to treatment: responded

## heregulin
pHER-1; MD AMB 468 cells
  Per Cell-RTK Activation (RFU/cell) pHER1: 4000 RFU/cell
pHER-1; SKBR3 cells
  Per Cell-RTK Activation (RFU/cell) pHER1: 105 RFU/cell
pHER-2; BT 474 cells
  Per Cell-RTK Activation (RFU/cell) pHER2: 1200 RFU/cell
pHER-2; SKBR3 cells
  Per Cell-RTK Activation (RFU/cell) pHER2: 353 RFU/cell
pHER-2; T47D cells
  Per Cell-RTK Activation (RFU/cell) pHER2: 165 RFU/cell
p95ErbB2
  p95ErbB2 phosphorylation: increased

## EGF: epidermal growth factor, stimulatory growth factor
pHER-2; BT 474 cells
  Per Cell-RTK Activation (RFU/cell) pHER2: 1200 RFU/cell
pHER-2; MDA MB 468 cells stimulated with EGF
  pHER-2: do not show any detectable
pHER-2; SKBR3 cells
  Per Cell-RTK Activation (RFU/cell) pHER2: 1334 RFU/cell
pHER-2; T47D cells
  Per Cell-RTK Activation (RFU/cell) pHER2: 80 RFU/cell

## C[C@]12CC[C@@H]3c4ccc(O)cc4C[C@@H](CCCCCCCCC[S+]([O-])CCCC(F)(F)C(F)(F)F)[C@H]3[C@@H]1CC[C@@H]2O (some centres unmarked) [Fulvestrant, fulvestrant]
ER
  ER: Treatment with Fulvestrant: Low
ER (Ser 118)
  ER (Ser 118): Treatment with Fulvestrant: Weak
ER (Ser 167)
  ER (Ser 167): Treatment with Fulvestrant: Weak
ER:AIB1 Complex
  ER: AIB1 Complex: Treatment with Fulvestrant: Weak
ER:N-CoR Complex
  ER: N-CoR Complex: Treatment with Fulvestrant: Weak
Progesterone Receptor; [1]
  Progesterone Receptor: Treatment with Fulvestrant: Low
IGF-1R; [1]
  IGF-1R: Treatment with Fulvestrant: Weak
ErbB1
  ErbB1: Treatment with Fulvestrant: Weak
ErbB2; [1]
  ErbB2: Treatment with Fulvestrant: Weak
ErbB3; [1]
  ErbB3: Treatment with Fulvestrant: Weak
ErbB4; [1]
  ErbB4: Treatment with Fulvestrant: Weak
Shc; [1]
  Shc: Treatment with Fulvestrant: Weak
PI3K; [1]
  PI3K: Treatment with Fulvestrant: Weak
Erk; [1]
  Erk: Treatment with Fulvestrant: Weak
Rsk; [1]
  Rsk: Treatment with Fulvestrant: Weak
Akt; [1]
  Akt: Treatment with Fulvestrant: Weak
P70S6K; [1]
  P70S6K: Treatment with Fulvestrant: Weak
Ki67; [1]
  Ki67: Treatment with Fulvestrant: Weak
Breast tumor; [1]
  Patient response to treatment: responded
